Experimental data from patent US20090123501A1, “INHIBITION OF THE SH2-DOMAIN CONTAINING PROTEIN TYR-PHOSPHATASE, SHP-1, TO ENHANCE VACCINES” (Baylor College of Medicine, priority 2007, published 2009).
Each block holds one molecule with its values, some of them ahead of it.

Tests used:
total splenocytes = experiment: T cell subsets in total splenocytes 7 days after DC vaccination, flow cytometry; assay type: in vivo, C57BL/6 mice; conditions: by peptide, viral treatments pooled, day 7, vs no treatment control
Experimental: To determine the effect of SHP-1 inhibition on the initiation of T cell responses, BMDCs were cultured and CD11c^+ MACS purified as described above. […] Following peptide loading DCs were left untreated or transduced with one of 3 different adenoviral vectors: 1) Ad5-SHP-1-shRNA; 2) Ad5-scrambled-shRNA; or 3) Ad5-CMV-empty, an adenovirus carrying a CMV promoter expression vector but no insert. […] Using all combinations of peptide and virus treatment yielded 9 experimental vaccines and one no vaccine control. Vaccines (2×10^6 DCs) were injected i.p. into wt C57BL/6 mice. Seven days following vaccination mice were sacrificed and total splenocytes were analyzed by multi-color flow cytometry for the expression of several T cell subsets. CD3^+ CD8^+IFNγ^+ cells were characterized as CTL effectors, CD3^+ CD4^+IFNγ^+ cells were characterized as Th1 helper T cells, and CD4^+ FOXP3^+ cells were characterized as Treg cells. Flow cytometry data were analyzed by one-way analysis of variance (ANOVA) and Tukey-Kramer HSD multiple comparisons test for percentage of cells falling within each population following treatment. Cells were stained with anti-CD3, anti-CD8 and anti IFNγ to differentiate CD8^+ effectors and CD4^+ Th1 T cell skewing or anti-CD4 and anti-FOXP3 to determine Tregs. To determine if there was a peptide specific effects between the 3 different tumor antigens, viral treatments were pooled for each peptide exposure. Data represent the averages 6 mice per peptide treatment group and 2 mice in the no treatment control group. No significant differences were seen between peptides in the induction of Tregs or CD8^+ effector cells.
(§1) Following peptide loading DCs were left untreated or transduced with one of 3 different adenoviral vectors: 1) Ad5-SHP-1-shRNA; 2) Ad5-scrambled-shRNA; or 3) Ad5-CMV-empty, an adenovirus carrying a CMV promoter expression vector but no insert. Vaccines were injected i.p. into wt C57BL/6 mice and T cell skewing analyzed 7 days later by flow cytometry from total splenocytes. Cells were stained with anti-CD3, anti-CD8 and anti IFNγ for effector and Th1 cells or anti-CD4 and anti-FOXP3 for Tregs. For the peptide specific analysis viral treatments were pooled for each peptide exposure. Data represent the averages 6 mice per peptide treatment and two mice in the no treatment control group. The green diamonds represent the mean and 95% confidence interval for each group from the ANOVA. The black line is the mean of means for the study and red asterisk (*) indicates significant differences (p<0.05 by Tukey-Kramer HSD multiple comparisons test).
as §1, with “the SHP-1” for “the peptide”, “each viral treatment.” for “each peptide exposure.”, “and 2” for “and two”, “ANOVA. […]” for “ANOVA. The black line is the mean of means for the study and red asterisk (*) indicates significant differences (p<0.05 by Tukey-Kramer HSD multiple comparisons test).”

TRAMP C2 tumors = experiment: DC vaccination of mice bearing ectopic TRAMP C2 tumors; assay type: in vivo, C57BL/6 mice; conditions: for TRAMP C2 tumor growth (growth curves, mean tumor volumes): by peptide loaded on DC vaccine, single i.p. vaccination 2×10^6 DCs, vs untreated mice; for TRAMP C2 tumor growth rate (mean tumor volume at day 48 post-vaccination, ANOVA): by peptide, pooled across viral treatments, vs no vaccination
Experimental: BMDCs were prepared as described above, transduced with either Ad5-SHP-1-shRNA or the control Ad5-scrambled-shRNA at 40,000 viral particles/cell, and pulsed with one of the six peptides listed in Table 1 (OVA, an irrelevant epitope to TRAMP 2 tumors, served as a negative control peptide) or a lysate of TRAMP C2 cells as a positive control antigen. 6-8 week C57BL/6 mice, bearing TRAMP C2 tumors (7×10^6 cells injected s.c. on the dorsal flank three days prior to vaccination), were given a single i.p. vaccination with 2×10^6 treated DCs or left untreated. Tumors were measured (length and width using calipers) every 2-4 days until termination of the study and tumor volume was estimated using the formula: Tumor volume (mm3)=x^2y×0.5236, where x is the smaller tumor dimension, and y is the larger tumor dimension. A-G) TRAMP tumor growth curves for vaccines loaded with the indicated peptides. Error bars represent the standard error of the mean of 5 mice vaccinated in each treatment. […] H-I) ANOVA analysis of peptide function and SHP-1 function. Data represent the averages 10 mice per peptide treatment and 5 mice in the no treatment control group for H) and 35 mice per viral transduction treatment and 5 mice in the no treatment control group for I). The green diamonds represent the mean and 95% confidence interval for each group from the ANOVA. The black line is the mean of means for the study and red symbols indicate significant differences (p<0.05 by Tukey-Kramer HSD multiple comparisons test).
To determine if there was a significant difference between the various peptides used in these DC vaccinations, mice were pooled across viral treatments (Ad5-SHP-1 shRNA or Ad5-scrambled-shRNA) employing the same peptide. An ANOVA for differences in mean tumor volume at day 48 post-vaccination (the time at which the majority of the vaccinated tumor growth curves change slope) and Tukey-Kramer HSD multiple comparisons test.
Next experiments were conducted to determine if vaccines transduced with Ad5-SHP-1-shRNA inhibited tumor growth compared to transduction with Ad5-scrambled-shRNA or no vaccine treatment, irrespective of what peptide was used in the vaccine.

H-2D^b [1] = target: T1, H-2D^b (Mus musculus, UniProt P01899); experiment: MHC class I surface stabilization assay on RMA-S cells, H-2Db; assay type: binding; conditions: RMA-S cells pulsed with peptide overnight, flow cytometry
T1 construct: lower relative expression of H-2D^b on RMA-S cells compared to H-2K^b; endogenous in cells; host or cells: RMA-S
T1 sequence (P01899 25-362): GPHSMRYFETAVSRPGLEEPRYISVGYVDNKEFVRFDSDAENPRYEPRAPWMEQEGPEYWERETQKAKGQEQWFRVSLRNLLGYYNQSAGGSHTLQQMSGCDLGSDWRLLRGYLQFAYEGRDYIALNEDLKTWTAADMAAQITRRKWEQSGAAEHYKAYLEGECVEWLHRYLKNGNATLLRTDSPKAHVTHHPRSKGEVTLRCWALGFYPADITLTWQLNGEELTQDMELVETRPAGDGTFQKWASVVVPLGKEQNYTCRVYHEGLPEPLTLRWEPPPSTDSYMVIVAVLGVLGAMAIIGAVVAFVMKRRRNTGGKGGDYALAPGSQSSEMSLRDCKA
T1 sequence (P01887 21-119 partner): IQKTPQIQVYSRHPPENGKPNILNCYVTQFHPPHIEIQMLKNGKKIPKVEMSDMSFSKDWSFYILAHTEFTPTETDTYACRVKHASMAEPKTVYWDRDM
Experimental: (§2) 10^6 RMA-S cells were incubated overnight at 37° C. with each of the five predicted at the concentrations indicated. Cells were stained with antibodies for H-2K^b (Y-3; ATCC-HB176) or H-2D^b (28-14-8S; ATCC-HB27) followed by a goat anti-mouse-FITC second step and MHC class I surface expression was analyzed by flow cytometry. Specific MFI is the mean fluorescent intensity of the sample-mean fluorescent intensity of goat anti-mouse-FITC second step alone. Error bars represent the standard deviation of triplicate measurements.
(§3) The binding affinity of the five predicted peptides was tested. In a surface stabilization assay using the TAP1 deficient cell line RMA-S. RMA-S cells were pulsed with peptide, at the indicated concentrations, and incubated overnight. Cells were stained with antibodies for H-2K^b (Y-3; ATCC-HB176) or H-2D^b (28-14-8S; ATCC-HB27) followed by a fluorescent-labeled secondary antibody and MHC class I surface expression was analyzed by flow cytometry.

AP-1 signaling = experiment: AP-1-dependent secreted alkaline phosphatase reporter in RAW cells; assay type: cell-based, murine; conditions: transient transfection, IFNγ or LPS stimulation
Experimental: Function of the mutant and wt SHP-1 constructs was tested in RAW cells by transient transfection of SHP-1 vectors along with a reporter construct expressing a secreted alkaline phosphatase driven by either an NFκB or AP-1 dependent promoter. NFκB and AP-1 are major transcription factors stimulated by toll-like receptor (TLR) and cytokine signaling in immune system cells, and represent likely pathways of SHP-1 inhibition on cellular activation. Cells were transfected with the appropriate construct, reporter and then stimulated with interferon-γ (IFNγ) or bacterial lipopolysaccharide (LPS) as ligands for cytokine and TLR receptors respectively.

H-2K^b = target: T2, H-2K^b (mouse, UniProt P01887 21-119; P01901 22-305, limits assumed); experiment: RMA-S surface stabilization assay, flow cytometry with antibody Y-3
T2 construct: whole, on cells;extracellular; MHC class I on RMA-S cells, detected with antibody Y-3 (ATCC-HB176) in a surface stabilization assay; also called MHC class 1 molecule H-2K^b
T2 sequence (MHC heavy, looked up): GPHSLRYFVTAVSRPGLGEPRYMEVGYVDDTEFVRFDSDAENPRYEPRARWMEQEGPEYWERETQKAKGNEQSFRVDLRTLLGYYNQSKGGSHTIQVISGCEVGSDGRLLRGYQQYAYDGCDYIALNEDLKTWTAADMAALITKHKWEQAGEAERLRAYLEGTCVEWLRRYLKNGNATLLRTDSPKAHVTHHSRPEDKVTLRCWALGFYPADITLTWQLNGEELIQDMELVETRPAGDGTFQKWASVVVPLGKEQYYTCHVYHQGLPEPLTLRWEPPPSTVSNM
T2 sequence (b2m, looked up): T1 sequence (P01887 21-119 partner)
Experimental: as §2, with “10⁶” for “10^6”, “measurements. This is representative of 3 separate studies.” for “measurements.”
as §3, with “cytometry. […] STEAP₈₄₋₉₁ and STEAP₁₈₆₋₁₉₂ bound with an affinity near that of OVA₂₅₈₋₂₆₅, a well characterized strong binding H-2K^b epitope from chicken ovalbumin. […]” for “cytometry.”

H-2D^b [2] = target: T3, H-2D^b (mouse, UniProt P01887 21-119; P01899 25-309); experiment: RMA-S surface stabilization assay, flow cytometry with antibody 28-14-8S
T3 construct: whole, on cells;extracellular; MHC class I on RMA-S cells, detected with antibody 28-14-8S (ATCC-HB27) in a surface stabilization assay; also called MHC class 1 molecule H-2D^b
T3 sequence (MHC heavy, looked up): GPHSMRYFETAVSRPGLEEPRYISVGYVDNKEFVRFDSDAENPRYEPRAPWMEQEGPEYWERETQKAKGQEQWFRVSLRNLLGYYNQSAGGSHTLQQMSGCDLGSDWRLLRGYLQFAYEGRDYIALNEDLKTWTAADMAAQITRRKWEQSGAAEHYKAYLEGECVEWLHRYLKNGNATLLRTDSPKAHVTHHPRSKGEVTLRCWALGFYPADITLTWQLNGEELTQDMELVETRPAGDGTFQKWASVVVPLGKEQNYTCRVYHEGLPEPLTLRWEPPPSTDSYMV
T3 sequence (b2m, looked up): T1 sequence (P01887 21-119 partner)
Experimental: as §2, with “10⁶” for “10^6”, “measurements. This is representative of 3 separate studies.” for “measurements.”
as §3, with “cytometry. […] STEAP₈₄₋₉₁ and STEAP₁₈₆₋₁₉₂ bound with an affinity near that of OVA₂₅₈₋₂₆₅, a well characterized strong binding H-2K^b epitope from chicken ovalbumin. […]” for “cytometry.”

Molecule: VSKINRTEM [STEAP327-335]
Th1 skewing (total splenocytes): significant
TRAMP C2 tumor growth (growth curves, mean tumor volumes) (TRAMP C2 tumors): strong inhibition of tumor growth
TRAMP C2 tumor growth rate (mean tumor volume at day 48 post-vaccination, ANOVA) (TRAMP C2 tumors): significant decrease in tumor growth rate
relative binding affinity to H-2Db (MHC class I surface expression) (H-2D^b [1]): did not appear to bind as well as some of the other peptides

Molecule: SVYDFFVWL [Trp-2, reference compound]
Th1 skewing (total splenocytes): significant

Molecule: SIINFEKL [OVA258-265, reference compound]
TRAMP C2 tumor growth (growth curves, mean tumor volumes) (TRAMP C2 tumors): equivalent to mice receiving no vaccine treatment

Molecule: AQMNNRDCL [PSCA29-37]
TRAMP C2 tumor growth (growth curves, mean tumor volumes) (TRAMP C2 tumors): strong inhibition of tumor growth
TRAMP C2 tumor growth rate (mean tumor volume at day 48 post-vaccination, ANOVA) (TRAMP C2 tumors): significant decrease in tumor growth rate
relative binding affinity to H-2Db (MHC class I surface expression) (H-2D^b [1]): did not appear to bind as well as some of the other peptides

Molecule: LLLGTVHAL [STEAP262-270]
relative binding affinity to H-2Db (MHC class I surface expression) (H-2D^b [1]): no detectable binding at any peptide concentration

Molecule: ca-SHP-1: constitutively active SHP-1 mutant with N-terminal SH2 domain deleted, HA-tagged (SEQ ID NO:9)
AP-1 signaling (AP-1 signaling): suppressing AP-1 signaling

binding result (H-2K^b): binds
Molecule: LTFLYTLL [STEAP84-91]

binding result (H-2D^b [2]): binds
Molecule: VSKINRTEM [STEAP327-335]

binding result (H-2K^b): binds
Molecule: RSYRYKLL [STEAP186-192]

binding result (H-2D^b [2]): binds
Molecule: AQMNNRDCL [PSCA29-37]
